{"source": "paper PMC3411647", "about": "(PLoS ONE, 2012)", "key": {"hH3R": {"target": "T1, hH3R (Homo sapiens, UniProt Q9Y5N1)", "T1 construct": "gene HRH3; recombinant, cDNA from human thalamus RNA (AF140538), stably expressed in HEK-293 cells; vectors pCMV-Flag and pEGFP-N1", "T1 sequence (Q9Y5N1 whole entry)": "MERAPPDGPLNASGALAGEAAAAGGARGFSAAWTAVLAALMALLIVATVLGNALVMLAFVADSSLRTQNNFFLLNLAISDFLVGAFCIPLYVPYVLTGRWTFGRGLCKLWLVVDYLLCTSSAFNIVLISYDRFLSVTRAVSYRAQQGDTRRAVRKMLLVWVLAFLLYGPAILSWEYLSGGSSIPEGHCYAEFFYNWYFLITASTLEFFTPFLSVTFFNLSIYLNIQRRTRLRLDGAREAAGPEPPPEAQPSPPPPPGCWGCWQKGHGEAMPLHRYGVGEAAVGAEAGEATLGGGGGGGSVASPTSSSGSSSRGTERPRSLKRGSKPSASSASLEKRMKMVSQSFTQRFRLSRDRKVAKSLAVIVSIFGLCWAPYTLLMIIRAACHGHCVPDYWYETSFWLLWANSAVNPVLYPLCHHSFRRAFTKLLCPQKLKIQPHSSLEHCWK", "experiment": "Saturation radioligand binding (Scatchard) of [3H]N-α-methylhistamine (0.03-50 nM) to membranes of HEK-293 cells expressing hH3R, 50 mM Tris-HCl pH 7.4, room temperature.", "method": "(§1) HEK-293 cells stably expressing H3R were harvested and resuspended in ice-cold 50 mM Tris-HCl (pH 7.4) containing a complete protease inhibitor cocktail tablet and mixed by inverting. The cell pellet was homogenized with a Polytron PT 1200 set at 4000 rpm and centrifuged at 1,000 g for 5 min. The supernatant was then centrifuged twice at 50,000 g for 30 min at 4°C. Finally, the resulting pellet was gently suspended in 50 mM Tris-HCl (pH 7.4) buffer and the membrane concentration was determined using Bio-Rad protein assays.\nThe membranes (50 µg of protein) were incubated with [^3H] N-α-methylhistamine at various concentrations (from 0.03 nM to 50 nM) for saturation binding assays. For competitive binding assays, the membranes (50 µg of protein) were incubated with 10 nM [^3H] N-α-methylhistamine for recombinant hH3R or 2nM [^3H] N-α-methylhistamine for rat brain H3R in the presence of various compound concentrations in the buffer (50 mM Tris–HCl, pH 7.4). The reaction mixtures were incubated for 90–120 min at room temperature to achieve binding equilibrium. Following three washes, the membrane-bound radioactivity was measured on a Topcount (PerkinElmer) at 20°C. […] IC50 values were converted to Ki values using the Cheng-Prusoff equation. […] All data were analyzed by nonline arregression using GraphPad Prism version 4.0 software."}, "rat brain H3R": {"target": "T2, rat brain H3R (Rattus norvegicus, UniProt Q9QYN8)", "T2 construct": "from tissue; host or cells: rat cerebral cortex membranes", "T2 sequence (Q9QYN8 whole entry)": "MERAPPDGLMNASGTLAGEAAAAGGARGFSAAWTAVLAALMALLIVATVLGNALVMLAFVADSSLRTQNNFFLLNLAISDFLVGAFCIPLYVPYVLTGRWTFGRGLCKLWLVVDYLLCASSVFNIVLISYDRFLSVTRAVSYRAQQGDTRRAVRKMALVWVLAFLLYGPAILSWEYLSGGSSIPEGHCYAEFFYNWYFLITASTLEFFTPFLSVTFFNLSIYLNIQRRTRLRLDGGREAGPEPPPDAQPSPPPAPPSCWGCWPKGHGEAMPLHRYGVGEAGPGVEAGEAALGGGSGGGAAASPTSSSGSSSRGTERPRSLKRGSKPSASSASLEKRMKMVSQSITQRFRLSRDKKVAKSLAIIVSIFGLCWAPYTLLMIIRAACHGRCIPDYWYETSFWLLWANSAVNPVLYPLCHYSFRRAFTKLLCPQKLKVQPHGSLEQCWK", "experiment": "Competitive/saturation binding with [3H]N-α-methylhistamine, rat cerebral cortex membranes", "details": "saturation binding, rat cerebral cortex", "method": "(§2) Figure 4 Competition binding experiments with [^3H]-N-α-methylhistamine. […] The presented data are the means ±SE of values from a single experiment performed in duplicate and are representative of three to six separate experiments.\n(§3) The membranes (50 µg of protein) were incubated with [^3H] N-α-methylhistamine at various concentrations (from 0.03 nM to 50 nM) for saturation binding assays. For competitive binding assays, the membranes (50 µg of protein) were incubated with 10 nM [^3H] N-α-methylhistamine for recombinant hH3R or 2nM [^3H] N-α-methylhistamine for rat brain H3R in the presence of various compound concentrations in the buffer (50 mM Tris–HCl, pH 7.4). […] Following three washes, the membrane-bound radioactivity was measured on a Topcount (PerkinElmer) at 20°C. […] IC50 values were converted to Ki values using the Cheng-Prusoff equation. Each experiment was performed in duplicate and repeated three to six times. All data were analyzed by nonline arregression using GraphPad Prism version 4.0 software."}, "H3R [1]": {"target": "T3, H3R (Homo sapiens, UniProt Q9Y5N1)", "T3 construct": "expressed in transfected cells", "T3 sequence (Q9Y5N1 whole entry)": "as the sequence (Q9Y5N1 whole entry) above", "experiment": "H3R internalization, cell-surface ELISA in HEK-293 cells stably transfected with Flag-H3R", "format": "cell-based", "details": "100 µM, 45 min at 37°C", "method": "ELISA data are expressed as the percentage of receptors detected on the surface of agonist-untreated cells expressing H3R. Error bars represent the SEM for four replicates.\nThe cell surface expression of H3R was quantitatively assessed by ELISA and performed as described previously. Briefly, HEK-293 cells stably transfected with the pCMV-H3R construct were seeded in 48-well dishes coated with poly-L-lysine. […] Medium was aspirated and the cells were washed once with Tris-buffered saline (TBS). […] Cells were then incubated for 1 h with an alkaline phosphatase-conjugated monoclonal antibody directed against the Flag epitope and diluted 1∶1,000. Cells were washed 3 times, and antibody binding was visualized by adding 0.25 mL of an alkaline phosphatase substrate (Bio-Rad). Development was stopped by adding 0.1 mL of the substrate to a 96-well microtiter plate containing 0.1 mL of 0.4 M NaOH."}, "H3R-EGFP": {"target": "T4, H3R-EGFP (Homo sapiens, UniProt Q9Y5N1)", "T4 construct": "expressed in transfected cells", "T4 sequence (Q9Y5N1 whole entry)": "as above", "experiment": "Recycling of internalized H3R-EGFP to the cell surface, confocal microscopy", "format": "cell-based", "details": "20 µM ZEL-H16 or 500 µM histamine for 30 min, cycloheximide 100 µg/ml", "method": "Figure 6 Localization of internalized H3R-EGFP stably expressed in HEK-293 cells and recycling of internalized H3R to the cell surface. […] All pictures shown are representative of at least three independent experiments.\nHEK-293 cells stably expressing H3R-EGFP were seeded in covered glass-bottom 6-well plates. […] After fixing the cells with 4% paraformaldehyde for 10 min, cells were mounted in mounting reagent (DTT/PBS/glycerol). Confocal images were taken on a Zeiss LSM 510 microscope with an attached Axiovert 200 microscope and LSM5 computer system. Images were collected using QED camera software and processed with Adobe Photoshop."}, "H3R [2]": {"target": "T5, H3R (Cavia porcellus, UniProt Q9JI35)", "T5 construct": "from tissue; host or cells: guinea-pig ileum segments", "T5 sequence (Q9JI35 whole entry)": "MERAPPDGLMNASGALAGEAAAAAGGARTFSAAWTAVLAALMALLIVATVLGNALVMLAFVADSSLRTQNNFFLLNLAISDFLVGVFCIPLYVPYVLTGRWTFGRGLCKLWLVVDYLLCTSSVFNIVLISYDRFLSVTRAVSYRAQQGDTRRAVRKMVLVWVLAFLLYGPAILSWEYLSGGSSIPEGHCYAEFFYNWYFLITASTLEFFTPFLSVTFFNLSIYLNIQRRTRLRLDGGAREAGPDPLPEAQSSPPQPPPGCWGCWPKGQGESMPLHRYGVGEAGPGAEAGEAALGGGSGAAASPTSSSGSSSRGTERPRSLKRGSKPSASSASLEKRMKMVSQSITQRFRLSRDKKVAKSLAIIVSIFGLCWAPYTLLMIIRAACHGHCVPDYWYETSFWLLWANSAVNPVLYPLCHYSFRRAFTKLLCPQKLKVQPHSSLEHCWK", "experiment": "Guinea-pig ileum bioassay, inhibition of electrically induced twitch", "method": "Each point is the mean ± s.e.m. of three to six separate experiments.\nThe procedure used was as described previously. Adult male guinea pigs (300–500 g) were killed by cervical dislocation. The ileum was removed at a point 20 cm from the caecum and flushed with and placed in modified K–H buffer of following composition: 118 mM NaCl, 5.9 mM KCl, 1.2 mM CaCl2, 1.2 mM MgSO4, 1 mM Na2HPO4, 25 mM NaHCO3 and 10 mM D-glucose. Ileum segments (2.5–3 cm) were suspended in 20 ml organ baths containing K–H buffer maintained at 37°C and gassed with 95% O2/5% CO2. Contractile activity under stimulation (rectangular pulses of 15 V, 0.5 ms, and 0.1 Hz) was recorded using isometric transducers (Grass FTO3). […] Mepyramine ([…]) and famotidine ([…]) (Sigma-Aldrich, St. Louis, MO) were added to the K–H buffer to block postsynaptic H1 and presynaptic H2 receptors, respectively."}, "[3]": {"target": "T6, human histamine H3 receptor (Homo sapiens, UniProt Q9Y5N1)", "T6 construct": "expressed in transfected cells", "T6 sequence (Q9Y5N1 whole entry)": "as the sequence (Q9Y5N1 whole entry) above", "experiment": "Competitive/saturation binding with [3H]N-α-methylhistamine, H3R/HEK-293 cell membranes", "method": "as §2, §1, §3"}, "histamine H4 receptor": {"target": "histamine H4 receptor", "details": "cited from earlier work"}, "H3R [4]": {"target": "T3, H3R", "experiment": "ERK1/2 phosphorylation (Western blot) in HEK-293 cells stably expressing H3R", "format": "cell-based", "method": "Figure 7 Phosphorylation of ERK1/2 induced by ZEL-H16 in H3R-expressing HEK-293 cells. […] Signals were quantified by densitometric image analysis and p-ERK was normalized to a loading control (ERK). […] Concentration -dependent phosphorylation signals were quantified by densitometric analysis and p-ERK levels were normalized to total ERK levels. […] C, The phosphorylation of ERK1/2 induced by ZEL-H16 could be entirely abolished by co-incubation with H3R antagonist thioperamide (***p<0.001). Data represent the mean ±SE of three independent experiments.\nHEK-293 cells stably expressing human H3R were grown in a 6-well plate and were serum starved 2 h in serum-free culture medium prior to stimulation. Cells were stimulated with the indicated H3R ligands at the designated concentrations. Incubations were stopped at the indicated times by removing the stimulation medium by aspiration. The cells were washed in ice-cold PBS and subsequently lysed in 100 µl of lysis buffer [20 mM HEPES (pH 7.5), 10 mM EDTA, 150 mM NaCl, 1% Triton X-100, and one tablet of complete protease inhibitor (Roche, Indianapolis, IN) per 50 mL] at 4°C on a rocker for 30 min. The lysates were centrifuged and separated by sodium dodecyl sulfate-polyacrylamide (12%) gel electrophoresis (SDS-PAGE) and blotted onto polyvinylidene difluoride membranes. Membranes were blocked for 1 h at room temperature in TBST (10 mmol/L Tris, 150 mmol/L NaCl, 0.1% Tween-20, pH 8.0) buffer containing 5% (v/w) skim milk. Membranes were probed overnight with primary antibodies against p-ERK1/2 (1∶1,000; Cell Signaling, Danvers, MA) in TBST containing 5% (v/w) BSA, and then probed with horseradish peroxidase-labeled secondary antibody (1∶5,000) for 1 h at room temperature in TBST containing 5% (v/w) milk powder. Immunoreactivity was detected by ECL assays. The blots were stripped and reprobed using antibodies against total ERK1/2 (1∶2,000) (Cell Signaling, Danvers, MA) as a control."}, "mouse H3R": {"target": "T7, mouse H3R (Mus musculus, UniProt P58406)", "T7 construct": "endogenous in cells; host or cells: primary cortical neurons of neonatal ICR mice", "T7 sequence (P58406 whole entry)": "as the sequence (Q9QYN8 whole entry) above, with T15A, A286T, A290G, R387H, I389V counted along it", "experiment": "ERK1/2 phosphorylation in neonatal mouse cortical neuron cultures", "format": "cell-based", "method": "Figure 8 Phosphorylation of ERK1/2 induced by ZEL-H16 in mouse cortical neurons. A, Time-dependent phosphorylation of ERK1/2 induced by 5 µM ZEL-H16 in neonatal mouse cortical neuron cultures. B, The phosphorylation of ERK1/2 induced by 50 µM ZEL-H16 for 20 min was mostly abolished by 100 ng/mL PTX or 10 µM thioperamide. Signals were quantified by densitometric image analysis and p-ERK was normalized to a loading control (ERK). The signal at each point is expressed as the percentage of the maximal p-ERK signal induced by ZEL-H16. Data represent the mean ±SE of three independent experiments.\nNeuronal cortical cultures were prepared from neonatal ICR mice. Cerebral cortices were dissociated in sterile Dulbecco’s phosphate-buffered saline (D-PBS; Sigma-Aldrich, St. Louis, MO), and the neurons were isolated in the same medium containing 0.5% trypsin at 37°C for 10 min. After centrifugation, dissociated neurons were re-suspended in neurobasal medium (NBM; Gibco, Carlsbad, CA) supplemented with 2% B-27 and 0.5 mmol/L-glutamine (Gibco, Carlsbad, CA) and then plated on 48-well plates at a density of approximately 1.3×10^6 per well. After 7 days of culture, the neurons were serum starved for approximately 3 h prior to drug treatment. […]"}}, "data": [{"smiles": "CNCCc1c[nH]cn1", "note": "[[^3H]N-α-methylhistamine, [3H]N-alpha-methylhistamine]", "values": [{"measurement": "Kd", "setting": "hH3R", "result": 0.71, "unit": "nM"}]}, {"smiles": "CNCCc1cnc[nH]1", "note": "[[^3H]N-α-methylhistamine, reference compound]", "values": [{"measurement": "Kd", "setting": "rat brain H3R", "result": 0.83, "unit": "nM"}]}, {"smiles": "NCCc1c[nH]cn1", "note": "[histamine, reference compound]", "values": [{"measurement": "loss in the expression of the receptors on the cell surface (internalization)", "setting": "H3R [1]", "result": "18–20%"}, {"measurement": "time for internalized H3R to recycle to the cell surface after agonist removal", "setting": "H3R-EGFP", "result": "≤ 1", "unit": "h"}, {"measurement": "efficacy of inhibition of the contractions of the guinea pig ileum", "setting": "H3R [2]; electrically induced twitch, mepyramine and famotidine present", "result": "54.52±0.99", "unit": "%"}, {"measurement": "EC50", "setting": "H3R [2]; inhibition of electrically induced twitch, read-out: pD 2 (converted)", "result": 95.5, "unit": "nM"}]}, {"smiles": "N=C(N)SCCc1c[nH]cn1", "note": "[imetit, S-[2-(4-imidazolyl)ethyl]isothiourea, reference compound]", "values": [{"measurement": "Ki", "setting": "[3]", "result": "0.9 ± 0.06", "unit": "nM"}, {"measurement": "loss in the expression of the receptors on the cell surface (internalization)", "setting": "H3R [1]", "result": "18–20%"}]}, {"smiles": "c1nc(CC2CCNCC2)c[nH]1", "note": "[immepip, 4-(1H-imidazol-4-ylmethyl)piperidine]", "values": [{"measurement": "pKi", "setting": "histamine H4 receptor", "result": 7.66}]}, {"smiles": "S=C(NC1CCCCC1)N1CCC(c2cnc[nH]2)CC1", "note": "[thioperamide]", "values": [{"measurement": "effect on ERK1/2 phosphorylation induced by 50 µM ZEL-H16", "setting": "H3R [4]", "result": "completely abolished"}, {"measurement": "effect on ERK phosphorylation induced by 50 µM ZEL-H16 at 20 min", "setting": "mouse H3R", "result": "abolish most of the stimulatory effects"}]}]}
